Laboratory results published in patent publication US11753408B2, “Compounds and method for blocking transmission of malarial parasite” (The United States of America, as represented by the …, priority 2016, dated 2023).
Like-named read-outs stand apart in the source and are kept apart here.

Legend:
[1] = test system: Asexual parasites of P. falciparum strain 3D7; experiment: In vitro drug activity on asexual parasites (SYBR Green assay); type: cell-based, Plasmodium falciparum
Procedure, shortened: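 3D7 parasites at 0.5% parasitemia and 2% hematocrit were exposed to drugs (DMSO ≤0.5%) for 72 h under standard culture conditions, in duplicate. After freeze-thaw lysis, SYBR Green I lysis buffer was added for 30 min at room temperature, and fluorescence was read at 490/520 nm.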

[2] = Microsomal stability (rat); type: in vitro ADME; conditions: rat microsomes
PAMPA permeability = type: in vitro ADME
[3] = test system: Stage III-V gametocytes (blood stage P. falciparum parasites); experiment: In vitro drug activity on gametocytes (AlamarBlue viability assay); type: cell-based, Plasmodium falciparum; conditions: read-out: Gametocyte EC50
Procedure, shortened: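 P. falciparum 3D7 stage III–V gametocytes (also HB3, Dd2), enriched by 50 mM N-acetylglucosamine and Percoll gradient, seeded at 20,000/well with compound for 72 h at 37° C, 5% CO2. AlamarBlue then added for 24 h; viability read as fluorescence (Ex 525, Em 598 nm).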

Solubility at pH 7.4 = type: physicochemical
[4] = P. falciparum 3D7 asexual parasites, 72 h, SYBR Green
[5] = P. falciparum stage III-V gametocytes, 72 h incubation, AlamarBlue

SMILES | EC50 [1, 4] [nM] | Microsomal Stability (rat) T1/2 [2] [min] | PAMPA Permeability (×10^6 cm/s) (PAMPA permeability) | Sol @ pH 7.4 (ug/mL) (Solubility at pH 7.4) | EC50 [1] [nM] | PAMPA Permeability (PAMPA permeability) [×10⁻⁶ cm/s] | Sol @ pH 7.4 (Solubility at pH 7.4) [ug/mL] | EC50 [3, 5] [nM] | EC50 [3] [nM]
CN(C)C(=O)c1cc(-c2ccc3ncc4ccc(=O)n(-c5ccc(S(C)(=O)=O)cc5)c4c3c2)ccc1Cl [Compound 50] | 932 | 3 | 164.4 ×10^6 cm/s | 2.7 |  |  |  | 1830 | 
CS(=O)(=O)c1ccc(-n2c(=O)ccc3cnc4ccc(-c5ccc(Cl)c(C(N)=O)c5)cc4c32)cc1 [Compound 51] | 203 | >30.0 | 43.1 ×10^6 cm/s | 4.3 |  |  |  | 291 | 
CCNC(=O)c1cc(-c2ccc3ncc4ccc(=O)n(-c5ccc(S(C)(=O)=O)cc5)c4c3c2)ccc1Cl [Compound 53] | 3790 | 2.8 | 115.9 ×10^6 cm/s | 9.6 |  |  |  | 6850 | 
CN(C)Cc1ccc(-c2ccc3ncc4ccc(=O)n(-c5ccc(S(=O)(=O)NC6CC6)cc5)c4c3c2)cc1 [Compound 57] | 381 | >30.0 | 527.8 ×10^6 cm/s | 7.9 |  |  |  | 840 | 
Nc1ccc(-c2ccc3ncc4ccc(=O)n(-c5cccc(S(N)(=O)=O)c5)c4c3c2)cn1 [Compound 77] | 81.7 | >30.0 | <1.0 ×10^6 cm/s | 33.6 |  |  |  | 295 | 
CS(=O)(=O)c1ccc(-n2c(=O)ccc3cnc4ccc(-c5ccc(N)nc5)cc4c32)cc1 [Compound 79] | 4.76 | >30.0 | <11.8 ×10^6 cm/s | <1.0 |  |  |  | 22.8 | 
O=C(c1ccc(-n2c(=O)ccc3cnc4ccc(-c5ccc(Cl)cc5)cc4c32)cc1)N1CCOCC1 [Compound 85] |  | 9 |  |  | 6.89 | 794 | <1.0 |  | 77.6
CNC(=O)c1ccc(-n2c(=O)ccc3cnc4ccc(-c5ccc(Cl)cc5)cc4c32)cc1 [Compound 99] |  | 16.9 |  |  | 46.7 | 1050 | <1.0 |  | 130
CN(C)Cc1ccc(-c2ccc3ncc4ccc(=O)n(-c5ccc6c(c5)CNC6=O)c4c3c2)cc1 [Compound 340] | 266 | >30.0 | 5.2 ×10^6 cm/s | >68.0 |  |  |  | 616 | 
CN(C)Cc1ccc(-c2ccc3ncc4ccc(=O)n(-c5ccc6c(c5)CN(C)C6=O)c4c3c2)cc1 [Compound 347] | 668 | >30.0 | 317.6 ×10^6 cm/s | >70.0 |  |  |  | 1720 | 
CCN1Cc2cc(-n3c(=O)ccc4cnc5ccc(-c6ccc(CN(C)C)cc6)cc5c43)ccc2C1=O [Compound 348] | 1460 | >30.0 | 289.4 ×10^6 cm/s | >72.0 |  |  |  | 2450 | 
CN(C)Cc1ccc(-c2ccc3ncc4ccc(=O)n(-c5ccc6c(c5)C(=O)NC6)c4c3c2)cc1 [Compound 349] | 14200 | >30.0 | 2.5 ×10^6 cm/s | >68.0 |  |  |  | 26800 | 
CN(C)Cc1ccc(-c2ccc3ncc4ccc(=O)n(-c5ccc6c(c5)CCC(=O)N6)c4c3c2)cc1 [Compound 357] | 863 | >30.00 | 40.53 ×10^6 cm/s | >70.00 |  |  |  | 2200 | 
CN1Cc2cc(-n3c(=O)ccc4cnc5ccc(-c6ccc(F)cc6)cc5c43)ccc2C1=O [Compound 360] | 170 | 19.2 | 635.05 ×10^6 cm/s | 0.73 |  |  |  | 736 | 
CCN1Cc2cc(-n3c(=O)ccc4cnc5ccc(-c6ccc(F)cc6)cc5c43)ccc2C1=O [Compound 361] | 1580 | >30.00 | 199.84 ×10^6 cm/s | <0.10 |  |  |  | 6440 | 
O=C1NCc2cc(-n3c(=O)ccc4cnc5ccc(-c6ccc(F)cc6)cc5c43)ccc21 [Compound 362] | 8.86 | 7.4 | 98.56 ×10^6 cm/s | 0.6 |  |  |  | 81.7 | 
NCc1cccc(-c2ccc3ncc4ccc(=O)n(-c5ccc6c(c5)CNC6=O)c4c3c2)c1 [Compound 370] | 296 | >30 | <1 ×10^6 cm/s | 27.3 |  |  |  | 4120 | 

Further lines, with some results ahead:

EC50 [1, 4] [nM] | Microsomal Stability (rat) T1/2 [2] [min] | PAMPA Permeability (×10^6 cm/s) (PAMPA permeability) | Sol @ pH 7.4 (ug/mL) (Solubility at pH 7.4) | EC50 [1] [nM] | PAMPA Permeability (PAMPA permeability) [×10⁻⁶ cm/s] | Sol @ pH 7.4 (Solubility at pH 7.4) [ug/mL] | SMILES | EC50 [3, 5] [nM] | EC50 [3] [nM]
14700 | <1.0 | 200.8 ×10^6 cm/s | 57.2 |  |  |  | CS(=O)(=O)c1ccc(-n2c(=O)ccc3cnc4ccc(-c5ccc(Cl)c(C(=O)N6CCOCC6)c5)cc4c32)cc1 [Compound 52] | 35200 | 
9.07 | 12.8 | <1.00 ×10^6 cm/s | <0.10 |  |  |  | C[S+]([O-])c1ccc(-n2c(=O)ccc3cnc4ccc(-c5ccc(Cl)cc5)cc4c32)cc1 (centres unmarked) [Compound 59] | 25.4 | 
489 | >30 | <12.3 ×10^6 cm/s | 1.4 |  |  |  | CS(=O)(=O)c1ccc(-n2c(=O)ccc3cnc4ccc(-c5cccc(CN)c5)cc4c32)cc1 [Compound 64] | 1050 | 
43.1 | 2.9 | 5.4 ×10^6 cm/s | <1 |  |  |  | CS(=O)(=O)c1ccc(-n2c(=O)ccc3cnc4ccc(-c5ccc(C=O)cc5)cc4c32)cc1 [Compound 65] | 461 | 
130 | >30.00 | 12.72 ×10^6 cm/s | 31.01 |  |  |  | CN(C)Cc1ccc(-c2ccc3ncc4ccc(=O)n(-c5ccc6c(c5)CCNC6=O)c4c3c2)cc1 [Compound 342] | 350 | 
687 | >30.0 | 292.3 ×10^6 cm/s | >74.0 |  |  |  | CN(C)Cc1ccc(-c2ccc3ncc4ccc(=O)n(-c5ccc6c(c5)CN(C5CC5)C6=O)c4c3c2)cc1 [Compound 354] | 1910 | 
1280 | >30 | 2.9 ×10^6 cm/s | 6.5 |  |  |  | NC1(c2ccc(-c3ccc4ncc5ccc(=O)n(-c6ccc7c(c6)CNC7=O)c5c4c3)cc2)CCC1 [Compound 368] | 2200 | 
1230 | 26 | 55 ×10^6 cm/s | 15.7 |  |  |  | O=C1NCc2cc(-n3c(=O)ccc4cnc5ccc(-c6ccc(CN7CCOCC7)cc6)cc5c43)ccc21 [Compound 369] | 2940 | 
